Usually melting point stands for the temperature, or range, at which the solid turns liquid.

We go through 13 molecules from US6440965B1, “Substituted pyrimidine derivatives, their preparation and their use in the treatment of neurodegenerative or neurological disorders of the central nervous system” (Krenitsky Pharmaceuticals, Inc., priority 1997, dated 2002).

One data set concerns PC12 cells. Description: Screen for NGF-like activity in cultured PC12 cells (neurite outgrowth, potentiation of NGF). It is filed as cell-based, rat. As to conditions: 2 days incubation, with or without a limiting concentration of NGF. The method, then:
Cultured PC12 cells (rat adrenal pheochromocytoma from ATCC) have receptors for NGF. Responses include promotion of neurite outgrowth and elevation of choline acetyltransferase (ChAT) (L. A. Greene and A. S. Tischler, Cell Neurobiol., 3, 373 (1982)).
The following assay is substantially as described in H L White and P W Scates, Neurochem. Res., 16, 63 (1991). PC12 cells were cultured at 37° C. in DMEM supplemented with fetal bovine serum, horse serum, glutamine, penicillin, streptomycin and non-essential amino acids. Cultures were split 1:4 every 4 or 5 days. Exponentially dividing cells were plated in fresh medium on collagen-coated 12-well plastic dishes. After allowing one day for cell attachment, the medium was replaced with low serum medium, with or without test compounds and also with or without a limiting concentration of NGF, with each condition in triplicate. The medium may contain up to 0.1% ethanol, which was used as a solvent for most compounds being tested. Cells were examined daily for morphological changes using an Olympus IMT-2 inverted research microscope. After 2 days incubation with test compounds, cells and media were transferred to 1.5 mL Eppendorf tubes. Aliquots of 20 uL were reserved for cell counting and viability determination by trypan blue exclusion. The remaining cell suspensions were centrifuged, and the cell pellets were washed once in serum-free medium and finally resuspended in 30 uL of distilled water containing eserine, an inhibitor of acetylcholinesterase. The suspensions were stored at −80° C. until they were assayed for choline acetyltransferase. Compounds are judged NGF-like in this primary screen if they (1) increase the activity of choline acetyltransferase, (2) enhance NGF-stimulated neurite outgrowth or (3) potentiate and appear additive with the action of NGF itself.
For the molecule `CN1CCN(c2nc(N)ncc2Oc2ccc(Cl)cc2)CC1` [2-amino-5-(4-chlorophenoxy)-4-(4-methylpiperazino)pyrimidine], the “NGF-like in vitro activity (ChAT increase, enhancement of NGF-stimulated neurite outgrowth and/or potentiation of NGF)” value was “especially potent activities”.
Still for that read-out and setting: the same measure for `Nc1ncc(Cc2ccc(Cl)cc2)c(NCCCCO)n1` [2-Amino-4-[2-(2-hydroxyethyl)ethylamino]-5-(4-chlorobenzyl)pyrimidine]: “especially potent activities”.
As to `Nc1ncc(Cc2ccc(Cl)cc2)c(N2CCC(O)CC2)n1` [2-Amino-5-(4-chlorobenzyl)-4-(4-hydroxypiperidino)pyrimidine], the “NGF-like in vitro activity (ChAT increase, enhancement of NGF-stimulated neurite outgrowth and/or potentiation of NGF)” value is on record as “especially potent activities”.
Still for that read-out and setting: with `Nc1ncc(Oc2ccc(Cl)cc2)c(N2CCN(C=O)CC2)n1` [2-amino-5-(4-chlorophenoxy)-4-(4-formylpiperazino)pyrimidine] the entry was “especially potent activities”.

System in a further data set: not given
Test: not given
Settings: not given
Turning to `Nc1ncc(Oc2ccc(Cl)cc2)c(N2CCNCC2)n1`, the melting point lay within 93 to 95 °C.
Still for that read-out and setting: the same measure for `CC(C)(C)C(=O)OCCN1CCN(c2nc(N)ncc2Oc2ccc(Cl)cc2)CC1`: 123 to 125 °C; for `Nc1ncc(Oc2ccc(Cl)cc2)c(N2CCOCC2)n1`: 138 to 140 °C.
The same measure, in the same setting: with `Cl.Nc1ncc(Oc2ccc(Cl)cc2)c(NCCOCCO)n1` the figure was 140 to 141 °C; with `CN(C)c1nc(N)ncc1Cc1ccccc1`, 181 to 182 °C; with `CC(=O)N1CCN(c2nc(N)ncc2Oc2ccc(Cl)cc2)CC1`, 153 to 157 °C.
The same measure, in the same setting: the same measure for `O=C(Nc1ccccc1)Nc1ncc(Oc2ccc(Cl)cc2)c(N2CCOCC2)n1`: 229 to 231 °C.
`Nc1ncc(Oc2ccc(Cl)cc2)c(N2CCN(CCO)CC2)n1` showed a melting point of 121 to 123 °C.

Another data set relates to PC-12 cells.
Test: not given
As to conditions: cited from earlier work.
With `O=C(CCn1cnc2c(=O)[nH]cnc21)Nc1ccc(C(=O)O)cc1` [AIT-082, 4[[3-(1,6-dihydro-6-oxo-9-purin-9-yl)-1-oxopropyl]amino]benzoic acid], the “NGF action in cultured PC-12 cells” value is reported as “enhance NGF action”.

Another data set relates to working memory.
Test: not given
As to conditions: mice; cited from earlier work.
Turning to `O=C(CCn1cnc2c(=O)[nH]cnc21)Nc1ccc(C(=O)O)cc1` [AIT-082, 4[[3-(1,6-dihydro-6-oxo-9-purin-9-yl)-1-oxopropyl]amino]benzoic acid], the “age induced working memory deficits” value is “restore age induced working memory deficits”.
